Source: ChEMBL document CHEMBL6153039, “Synthesis and structural modification of the natural product Ivesinol to discover novel autophagy activators” (Eur J Med Chem, 2025)
Calls of active or inactive are those of the source. The rule behind the calls is not given here.

What was measured:
MCF7 [1] = assay: Induction of autophagy in human MCF7 cells assessed as upregulation of LC3-II to LC3-I ratio at 20 uM incubated for 4 hrs by Western blotting analysis; format: functional, cell-based
MCF7 [2] = assay: Induction of autophagy in human MCF7 cells assessed as p62/GAPDH ratio (reference value: 1.20); format: functional
MCF7 [3] = assay: Induction of autophagy in human MCF7 cells assessed as p62/GAPDH ratio (reference value: 0.96); format: functional
MCF7 [4] = assay: Inhibition of autophagy in human MCF7 cells assessed as increase in p62 protein level incubated for 4 hrs by Western blotting analysis; format: functional, cell-based; details: dose 0.1-2 µM
MCF7 [5] = assay: Inhibition of autophagy in human MCF7 cells assessed as increase in LC3-I protein level incubated for 4 hrs by Western blotting analysis; format: functional, cell-based; details: dose 0.1-2 µM
HEK293 [6] = assay: Inhibition of autophagy in HEK293 cells assessed as increase in p62 protein level incubated for 4 hrs by Western blotting analysis; format: functional, cell-based; details: Homo sapiens, dose 0.1-2 µM
MCF7 [7] = assay: Inhibition of autophagy in human MCF7 cells assessed as increase in LC3-II protein level incubated for 4 hrs by Western blotting analysis; format: functional, cell-based; details: dose 0.1-2 µM
HEK293 [8] = assay: Inhibition of autophagy in HEK293 cells assessed as increase in LC3-I protein level incubated for 4 hrs by Western blotting analysis; format: functional, cell-based; details: Homo sapiens, dose 0.1-2 µM
HEK293 [9] = assay: Inhibition of autophagy in HEK293 cells assessed as increase in LC3-II protein level incubated for 4 hrs by Western blotting analysis; format: functional, cell-based; details: Homo sapiens, dose 0.1-2 µM
MCF7 [10] = assay: Induction of autophagy in wild type human MCF7 cells assessed as increase in LC3-II level at 10 uM incubated for 6 to 8 hrs by Western blotting analysis; format: functional, cell-based; details: time 6-8 hrs
MCF7 [11] = assay: Induction of autophagy in pEGFP-LC3-labeled human MCF7 cells assessed as formation of autophagosome by measuring the appearance of clustered granules near the nucleus at 10 uM by laser confocal microscopic imaging analysis; format: functional, cell-based; details: time 1-8 hrs
HEK293 [12] = assay: Induction of autophagy in HEK293 cells assessed as increase in LC3-II protein level incubated for 4 hrs by Western blotting analysis; format: functional, cell-based; details: Homo sapiens, dose 0.5-10 µM
HEK293 [13] = assay: Induction of autophagy in HEK293 cells assessed as decrease in p62 protein level incubated for 4 hrs by Western blotting analysis; format: functional, cell-based; details: Homo sapiens, dose 0.5-10 µM
MCF7 [14] = assay: Cytotoxicity against human MCF7 cells assessed as reduction in cell viability at 0.3125 to 40 uM incubated for 24 hrs by MTT assay; format: functional, cell-based; details: dose 0.3125-40 µM
MCF7 [15] = assay: Induction of autophagic flux in wild type human MCF7 cells assessed as increase in p62 protein level at 10 uM incubated for 4 hrs in the presence of bafilomycin A1 by Western blotting analysis; format: functional, cell-based
MCF7 [16] = assay: Induction of autophagy in human MCF7 cells assessed as decrease in p62 level at 20 uM incubated for 4 hrs by Western blotting analysis; format: functional, cell-based
MCF7 [17] = assay: Induction of autophagy in wild type human MCF7 cells assessed as increase in LC3-II level at 20 uM incubated for 4 hrs by Western blotting analysis; format: functional, cell-based
MCF7 [18] = assay: Induction of autophagy in human […] cells increase in LC3-II protein level incubated for 4 hrs by Western blotting analysis; format: functional, cell-based; details: dose 0.5-10 µM
MCF7 [19] = assay: Induction of autophagic flux in wild type human MCF7 cells assessed as increase in LC3-II protein level at 10 uM incubated for 4 hrs in the presence of bafilomycin A1 by Western blotting analysis; format: functional, cell-based
MCF7 [20] = assay: Induction of autophagy in human […] cells assessed as decrease in p62 protein level incubated for 4 hrs by Western blotting analysis; format: functional, cell-based; details: dose 0.5-10 µM
MCF7 [21] = assay: Induction of autophagy in wild type human MCF7 cells assessed as decrease in p62 level at 10 uM incubated for 1 to 4 hrs by Western blotting analysis; format: functional, cell-based; details: time 1-4 hrs
MCF7 [22] = assay: Induction of autophagic flux in wild type human MCF7 cells assessed as increase in LC3-I protein level at 10 uM incubated for 4 hrs in the presence of bafilomycin A1 by Western blotting analysis; format: functional, cell-based
MCF7 [23] = assay: Induction of autophagy in human MCF7 cells assessed as increase in LC3-II/LC3-1 rate at 20 uM incubated for 4 hrs by Western blotting analysis; format: functional, cell-based
L02 = assay: Cytotoxicity against human LO2 cells assessed as reduction in cell viability at 0.3125 to 40 uM incubated for 24 hrs by MTT assay; format: toxicity, cell-based; details: l02, 24 h, dose 0.3125-40 µM
[24] = Cytotoxicity against human […] cells assessed as reduction in cell viability at 0.3125 to 40 uM incubated for 24 hrs by MTT assay; format: toxicity, cell-based; details: dose 0.3125-40 µM
MCF7 [25] = assay: Induction of autophagy in human MCF7 cells expressing pEGFP-LC3 assessed as increase in LC3 puncta at 20 uM incubated for 4 hrs by fluorescence microscopic analysis; format: functional, cell-based
MCF7 [26] = assay: Induction of autophagy in wild type human MCF7 cells assessed as decrease in LC3-I level at 20 uM incubated for 4 hrs by Western blotting analysis; format: functional, cell-based
BEAS-2B = assay: Cytotoxicity against human BEAS-2B cells assessed as reduction in cell viability at 0.3125 to 40 uM incubated for 24 hrs by MTT assay; format: toxicity, cell-based; details: dose 0.3125-40 µM
MCF7 [27] = assay: Induction of autophagy in wild type human MCF7 cells assessed as increase in LC3-II level at 10 uM incubated for 1 to 4 hrs by Western blotting analysis; format: functional, cell-based; details: time 1-4 hrs

Structure (SMILES): CCC(=O)c1c(O)c(C)c(OC)c(Cc2c(O)c(C(=O)C(C)C)c(O)c(C)c2OC)c1O
- Activity (MCF7 [1]): Active
- Ratio (MCF7 [2]): 0.86

Structure (SMILES): CCCCC(=O)c1c(O)c(C)c(OC)c(Cc2c(O)c(C(=O)CCCC)c(O)c(C)c2OC)c1O
- Activity (MCF7 [1]): Active
- Ratio (MCF7 [3]): 0.86

Structure (SMILES): COc1c(C)c(O)c(CC(C)C)c(O)c1Cc1c(O)c(CC(C)C)c(O)c(C)c1OC
- Ratio (MCF7 [3]): 0.95

Structure (SMILES): COc1c(C)c(O)c(C(=O)C(C)(C)C)c(O)c1Cc1c(O)c(C(=O)C(C)(C)C)c(O)c(C)c1OC
- Ratio (MCF7 [3]): 1.18

Structure (SMILES): CCCCC(=O)c1c(O)c(C)c(OC)c(Cc2c(O)c(C(C)=O)c(O)c(C)c2OC)c1O
- Activity (MCF7 [1]): Active
- Ratio (MCF7 [2]): 0.85

Structure (SMILES): COc1c(C)c(O)c(C(C)=O)c(O)c1Cc1c(O)c(C(=O)C(C)C)c(O)c(C)c1OC
- Activity (MCF7 [1]): Active
- Ratio (MCF7 [2]): 0.84

Structure (SMILES): CCCCCc1c(O)c(C)c(OC)c(Cc2c(O)c(CCCCC)c(O)c(C)c2OC)c1O
- Ratio (MCF7 [3]): 0.97

Structure (SMILES): CCCCC(=O)c1c(O)c(C)c(OC)c(Cc2c(O)c(C)c(O)c(C(=O)CCCC)c2OC)c1O
- Ratio (MCF7 [2]): 1.05

Structure (SMILES): COc1c(C)c(O)c(C(=O)C(C)C)c(O)c1Cc1c(O)c(C(=O)C(C)(C)C)c(O)c(C)c1OC
- Activity (MCF7 [1]): Active
- Ratio (MCF7 [2]): 0.98

Structure (SMILES): COc1c(Cc2c(O)c(C)c(O)c(C(=O)C(C)C)c2OC)c(O)c(C)c(O)c1C(=O)C(C)C
- Ratio (MCF7 [3]): 0.92

Structure (SMILES): COc1c(C)c(O)c(C(C)=O)c(O)c1Cc1c(O)c(C)c(O)c(C(=O)C(C)C)c1OC
- Activity (MCF7 [1]): Active
- Ratio (MCF7 [2]): 0.71

Structure (SMILES): CCCCC(=O)c1c(O)c(C)c(O)c(Cc2c(O)c(C)c(O)c(C(=O)CCCC)c2OC)c1OC
- Activity (MCF7 [1]): Active
- Ratio (MCF7 [3]): 0.84

Structure (SMILES): COc1c(C)c(O)c(C(=O)C(C)C)c(O)c1Cc1c(O)c(C)c(O)c(C(=O)C(C)C)c1OC
- Activity (MCF7 [1]): Active
- Ratio (MCF7 [2]): 0.7

Structure (SMILES): CCC(=O)c1c(O)c(Cc2c(O)c(C(=O)CC)c(O)c(C(=O)CC)c2O)c(O)c(C(=O)CC)c1O
- inhibition (MCF7 [4]): Dose-dependent-effect
- inhibition (MCF7 [5]): Dose-dependent-effect
- inhibition (HEK293 [6]): Dose-dependent-effect
- inhibition (MCF7 [7]): Dose-dependent-effect
- inhibition (HEK293 [8]): Dose-dependent-effect
- inhibition (HEK293 [9]): Dose-dependent-effect

Structure (SMILES): COc1c(C)c(O)c(C(=O)C(C)C)c(O)c1Cc1c(O)c(C(=O)C(C)C)c(O)c(C)c1OC
- Activity (MCF7 [10]): inactive
- Activity (MCF7 [11]): Time-dependent-effect
- Activity (HEK293 [12]): Dose-dependent-effect
- Activity (MCF7 [1]): Active
- Activity (HEK293 [13]): Dose-dependent-effect
- Activity (MCF7 [14]): Active
- Activity (MCF7 [15]): Active
- Activity (MCF7 [16]): Active
- Activity (MCF7 [17]): Active
- Activity (MCF7 [18]): Dose-dependent-effect
- Activity (MCF7 [19]): Active
- Activity (MCF7 [20]): Dose-dependent-effect
- Activity (MCF7 [21]): Active
- Activity (MCF7 [22]): Active
- Activity (MCF7 [23]): Active
- Ratio (MCF7 [3]): 0.73
- Activity (L02): Toxic
- Activity [24]: Toxic
- Activity (MCF7 [25]): Active; Higher Activity Observed
- Activity (MCF7 [26]): Active
- Activity (BEAS-2B): Toxic
- Activity (MCF7 [27]): Active

Structure (SMILES): CCN(CC)CCCC(C)Nc1ccnc2cc(Cl)ccc12 (stereo unspecified)
- Activity (MCF7 [17]): Active
- Activity (MCF7 [26]): inactive
